US20110212027A1, “RADIATIVE HEATING FOR DRUG DELIVERY AND OTHER APPLICATIONS” (priority 2008, published 2011)

Assay: Release from reservoir devices submerged in PBS
Type: physicochemical
Details: physiologically-triggerable membrane
Description: The devices were constructed as follows. Two 1 cm diameter disks were punched out of a membrane sheet produced as described above. A 1 cm length of ⅜ inch OD (¼ inch ID) silicone tubing (currently used for catheters) was then cut and a membrane disk was glued to one side of the tube using a LockTite low viscosity quick drying adhesive. (1 inch=2.54 cm) After 30 minutes of drying (under light pressure), the membrane-backed tube was then filled with drug or indicator solution. Sodium fluorescein (100 mg/mL in saline) and bupivacaine (10 mg/mL in saline, as well as bupivacaine powder in a saturated saline solution with solid chunks of drug also added to give a larger drug reservoir for release) were tested. The top membrane was then attached using glue following the same technique as for the bottom membrane and set for 30 minutes under light pressure. […] For flux testing, the devices were submerged in 5 mL of PBS at a specific test temperature, with samples taken at predetermined intervals to track the release kinetics. For the microwave antenna devices, two 0.4 cm […] strips of aluminum foil were glued to the outside of the device, one at the top of the device and the other at the bottom of the device (with a 0.2 mm gap in the center) using the same adhesive.

release of bupivacaine from device into PBS (37° C.): below the minimal effective dose | release of bupivacaine from device into PBS (50° C.): above the minimal effective dose
Structure (SMILES): CCCCN1CCCCC1C(=O)Nc1c(C)cccc1C (centres unmarked) [bupivacaine]
